Columns and labels:
Type in all cases: cell-based, human
TamR cells (MCF7 LCC9) [1] = experiment: Colony survival assay, TamR cells
Method: (§1) Cells were fixed in 70% ethanol overnight. Cells were subjected to RNaseA treatment and stained with propidium iodide (PI). Data was collected using FACScalibur and analyzed with FloJo 10.0 software. Data from 3 independent experiments are shown. SEMs are shown. **P<0.01 and ***P<0.001 by two-way ANOVA. […] TamS and TamR cells were treated with either DMSO or 1 μM 4-OH Tam and initiated on day 0. Results are representative of 3 independent experiments and presented as relative proliferation in which all samples are normalized to Day 0. Standard deviations are shown. *P<0.05 by t-test. […] Cells were treated with either DMSO or 1 μM 4-HT 24 hours after plating. Colonies scored after 10 days counting only ≥50 cells/colony. Results are representative of 3 independent experiments. SEMs are shown. ***P<0.001 by two-way ANOVA. […] Equal amounts of RNA were reverse transcribed and quantified through real-time PCR. RNA levels normalized to GAPDH using the ^−ΔΔCt method. Error bars represent SEM. […] RNA levels normalized to GAPDH using the ^−ΔΔCt method. Error bars represent SEM.
Cells were lysed in NP-40 buffer and probed for key translation factors. β-tubulin (loading control). […] Cells were treated with either DMSO or 1 μM 4-OH Tam 24 hours after plating. Dox (1 μg/mL) was administered 24 hours after plating and removed after 72 hours. Colonies scored after 10 days counting only ≥50 cells/colony. SEM is shown. […] Cells were treated with either DMSO control or 1 μM 4-OH Tam for 72 hours in 1% CS-FBS. Dox (1 μg/mL) was administered to cells for 72 hours. […] Data was collected using LSRII UV and analyzed with FloJo software. […] Data was collected using FACScalibur and analyzed with FloJo 10.0 software. […] Data was collected using FACScalibur and analyzed with FloJo 10.0 software. […] Colonies scored after 10 days counting only ≥50 cells/colony. […]
Hsp70 (loading control). […] Colonies were scored after 10 days counting only >50 cells/colony. […] Equal amounts of RNA were resolved by sucrose gradient centrifugation and ribosome profiles monitored by UV absorbance 254 nm. […]

TamR cells (MCF7 LCC9) [2] = experiment: Cell cycle analysis, TamR cells; conditions: 20 nM RAD001 plus 1 μM 4-OH Tam, 72 hours
Method: Cells were lysed in NP-40 buffer and probed for key translation factors. β-tubulin (loading control). […] Cells were treated with either DMSO or 1 μM 4-OH Tam 24 hours after plating. Dox (1 μg/mL) was administered 24 hours after plating and removed after 72 hours. Colonies scored after 10 days counting only ≥50 cells/colony. SEM is shown. […] Cells were treated with either DMSO control or 1 μM 4-OH Tam for 72 hours in 1% CS-FBS. Dox (1 μg/mL) was administered to cells for 72 hours. Cells were fixed in 70% ethanol overnight and subjected to RNaseA treatment. Cells were stained with Hoechst 33342. Data was collected using LSRII UV and analyzed with FloJo software. Data from 3 independent experiments are shown. SEM is shown. *P<0.05 by two-way ANOVA. […] Cap chromatography performed on TamR cells with or without 4E-BP1 cDNA overexpression. Cells were lysed in NP-40 buffer and pulldown was performed for 1 hour at 4° C. Proteins were eluted and resolved via SDS-PAGE. […] Data was collected using FACScalibur and analyzed with FloJo 10.0 software. […] Data was collected using FACScalibur and analyzed with FloJo 10.0 software. […] Colonies scored after 10 days counting only ≥50 cells/colony. […]
(§2) Cell Cycle Analysis: Cells were trypsinized, filtered, and counted using an automated cell counter (Bio-Rad). […] Data were collected using a FACScalibur or LSRII UV and analyzed with FlowJo 10.0.

TamR cells (MCF7 LCC9) [3] = experiment: Cell proliferation assay (MTT), TamR cells; conditions: 1 μM 4-OH Tam
Method: as §1
Endogenous eIF4E was silenced by shRNA. […]
Cell Proliferation Assay: Cell proliferation was measured using the CellTiter 96 nonradioactive cell proliferation assay kit (Promega) according to the manufacturer's instructions. […] Absorbance was measured at 570 nm. […]

BR7 (PDX) cells = experiment: Cell cycle analysis, BR7 (PDX) cells; conditions: 1 μM 4-OH Tam
Method: as §1, §2

[4] = system: canonical ER signaling in TamR cells; experiment: ER signaling mRNA expression (c-Myc, EEIG1) by real-time PCR, TamR cells; conditions: Tam for 24 hours
Method: as §1
(§3) Quantitative Real-Time PCR (RT-qPCR) and Analysis: RNA was extracted using Trizol as per the manufacturer's instructions. […] Fold change was calculated using the 2^−ΔΔCt method.

[5] = system: canonical ER signaling in BR7 cells; experiment: ER signaling mRNA expression (c-Myc, EEIG1) by real-time PCR, BR7 (PDX) cells; conditions: Tam for 24 hours
Method: as §1, §3

TamS cells (MCF7 LCC1) = experiment: Cell cycle analysis, TamS cells with or without eIF4E overexpression; conditions: 1 μM 4-OHT for 72 h, regardless of eIF4E overexpression
Method: Dox (2 μg/mL) was added 72 hours prior to lysis in NP-40 buffer. Equal protein amounts were immunoblotted as shown. β-Actin was used as a loading control. […] Dox (2 μg/mL) was added for 72 hours. Cells were subjected to exhaustive RNase A and stained with propidium iodide (PI). Flow cytometry data were collected using a FACScalibur and analyzed with FloJo software. The average of three studies is shown. […] Cells were treated with 2 μg/mL Dox for 72 hours and lysed in NP-40 buffer. Equal protein amounts were immunoblotted. β-Actin was used as a loading control. Representative results are shown. […] TamS sh-control, eIF4E-overexpressing, shTSC2, and shTSC2 and eIF4E-overexpressing cells were treated with either DMSO or 1 μM 4-OHT. (**)P<0.01; (***)P<0.0001 by two-way ANOVA. […] Results are the average of three independent studies.
Cell Cycle Analysis: Cells were trypsinized, filtered, and counted using an automated cell counter (Bio-Rad). Cells (7×10^5) were seeded on 10-cm culture plates in IMEM (Corning) with 5% FBS (Gibco) and 0.4% gentamicin sulfate (Lonza) and allowed to adhere overnight. The medium was changed to IMEM (Corning) with 1% charcoal-stripped FBS (HyClone) and 0.4% gentamicin sulfate for 48 hours. Cells were treated with the appropriate drug for 72 hours and with fresh drug after 48 hours. […] Data were collected using a FACScalibur or LSRII UV and analyzed with FlowJo 10.0.

Compound	resensitization to tamoxifen: survival (TamR cells (MCF7 LCC9) [1]; 20 nM RAD001 plus 1 μM 4-OH Tam, 10 days)	cell survival on cotreatment (TamR cells (MCF7 LCC9) [1]; RAD001 added to 1 μM 4-OHT plus 10 μM CGP57380)	resensitization to tamoxifen: cell proliferation (TamR cells (MCF7 LCC9) [2])	proliferation under tamoxifen (TamR cells (MCF7 LCC9) [3])	survival under tamoxifen (TamR cells (MCF7 LCC9) [1]; 1 μM 4-OH Tam, 10 days)	cell cycle distribution under tamoxifen (BR7 (PDX) cells)	tamoxifen-induced repression of canonical ER signaling [4]	tamoxifen-induced repression of canonical ER signaling [5]	proliferation in the presence of tamoxifen (TamS cells (MCF7 LCC1))
CO[C@H]1C[C@@H]2CC[C@@H](C)[C@@](O)(O2)C(=O)C(=O)N2CCCC[C@H]2C(=O)O[C@H]([C@H](C)C[C@@H]2CC[C@@H](OCCO)[C@H](OC)C2)CC(=O)[C@H](C)/C=C(\C)[C@@H](O)[C@@H](OC)C(=O)[C@H](C)C[C@H](C)/C=C/C=C/C=C/1C [RAD001, Everolimus]	decreased survival	further additive reduction in cell survival	restoration of inhibition of cell proliferation	–	–	–	–	–	–
CC/C(=C(\c1ccccc1)c1ccc(OCCN(C)C)cc1)c1ccccc1 [tamoxifen]	–	–	–	maintain normal proliferation and survival	maintain normal proliferation and survival	normal cell cycle distribution	insensitive	insensitive	unable to proliferate
